# Measured values published in patent US6737383B1, “Herbicidal oxadiazolidines” (priority 1999, dated 2004).
# Assays:
# blackgrass = experiment: Test B pre/postemergence blackgrass; assay type: in vivo, Alopecurus myosuroides
# In short: (§1)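 Test chemicals in a non-phytotoxic solvent mixture with surfactant were sprayed preemergence onto planted seeds and postemergence onto plants 2 to 18 cm tall (1- to 4-leaf stage). After twelve to sixteen days in a greenhouse, injury was visually rated against untreated controls from 0 (no effect) to 10 (complete control).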
# surinam grass = experiment: Test B pre/postemergence surinam grass; assay type: in vivo, Brachiaria decumbens
# In short: as §1
# cocklebur = experiment: Test B pre/postemergence cocklebur; assay type: in vivo, Xanthium strumarium
# In short: as §1
# corn = experiment: Test B pre/postemergence corn; assay type: in vivo, Zea mays
# In short: as §1
# crabgrass = experiment: Test B pre/postemergence crabgrass; assay type: in vivo, Digitaria sanguinalis
# In short: as §1
# giant foxtail = experiment: Test B pre/postemergence giant foxtail; assay type: in vivo, Setaria faberii
# In short: as §1
# morningglory = experiment: Test B pre/postemergence morningglory; assay type: in vivo, Ipomoea hederacea
# In short: as §1
# pigweed = experiment: Test B pre/postemergence pigweed; assay type: in vivo, Amaranthus retroflexus
# In short: as §1
# soybean = experiment: Test B pre/postemergence soybean; assay type: in vivo, Glycine max
# In short: as §1
# sugar beet = experiment: Test B pre/postemergence sugar beet; assay type: in vivo, Beta vulgaris
# In short: as §1
# wild oat = experiment: Test B pre/postemergence wild oat; assay type: in vivo, Avena fatua
# In short: as §1
# purple nutsedge = experiment: Test B pre/postemergence purple nutsedge; assay type: in vivo, Cyperus rotundus
# In short: as §1
# rice = experiment: Test B flood test rice; assay type: in vivo, Oryza sativa; details: for Rice plant response rating: scale of 0 to 10 where 0 is no effect and 10 is complete control
# In short: (§2)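 Each value is a visual injury score relative to controls, with 10 meaning complete control and 0 no effect. Evaluation took place twelve to sixteen days after the 2-leaf-stage plants were treated and kept in the greenhouse.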
# smallflower flatsedge = experiment: Test B flood test smallflower flatsedge; assay type: in vivo, Cyperus difformis; details: for S. Flatsedge plant response rating: scale of 0 to 10 where 0 is no effect and 10 is complete control
# In short: as §2
# duck salad = experiment: Test B flood test duck salad; assay type: in vivo, Heteranthera limosa; details: for Plant response rating, Ducksalad: scale 0 to 10, 0 is no effect, 10 is complete control; for Ducksalad plant response rating: scale of 0 to 10 where 0 is no effect and 10 is complete control
# In short: as §2
# [1] = Postemergence, Rate 125 g/ha, scale 0 to 10, 0 is no effect, 10 is complete control
# [2] = Postemergence, Rate 250 g/ha, scale 0 to 10, 0 is no effect, 10 is complete control
# [3] = Postemergence, Rate 500 g/ha, scale of 0 to 10 where 0 is no effect and 10 is complete control
# [4] = Preemergence, Rate 62 g/ha, scale 0 to 10 (0 no effect, 10 complete control)
# [5] = Preemergence, Rate 125 g/ha, scale of 0 to 10 where 0 is no effect and 10 is complete control
# [6] = Preemergence, Rate 250 g/ha, scale of 0 to 10 where 0 is no effect and 10 is complete control
# [7] = Preemergence, Rate 500 g/ha, scale 0 to 10, 0 is no effect, 10 is complete control
# [8] = Rate 62 g/ha, Postemergence, scale of 0 to 10 where 0 is no effect and 10 is complete control
# [9] = Preemergence, Rate 250 g/ha, scale 0 to 10, 0 is no effect, 10 is complete control
# [10] = Postemergence section (flood test species), Rate 500 g/ha
# [11] = Rate 62 g/ha, Postemergence (flood test species)
# [12] = flood test species, listed under Postemergence, Rate 250 g/ha, scale 0 to 10, 0 is no effect, 10 is complete control
smiles,measurement,setting,value
CCOC(=O)C=C(Cn1c(=O)on(C(=O)N(c2ccc(F)cc2)C(C)C)c1=O)OCC [Compound 396],"Plant response rating, Blackgrass",blackgrass; [1],2
same,"Plant response rating, Blackgrass",blackgrass; [2],3
same,Blackgrass plant response rating,blackgrass; [3],6
same,"Plant response rating, Blackgrass",blackgrass; [4],0
same,"Plant response rating, Blackgrass",blackgrass; [5],0
same,Blackgrass plant response rating,blackgrass; [6],3
same,Blackgrass plant response rating,blackgrass; [7],5
same,Blackgrass plant response rating,blackgrass; [8],0
same,"Plant response rating, B. signalgrass",surinam grass; [1],0
same,"Plant response rating, B. signalgrass",surinam grass; [2],0
same,B. signalgrass plant response rating,surinam grass; [3],0
same,"Plant response rating, B. signalgrass",surinam grass; [4],0
same,"Plant response rating, B. signalgrass",surinam grass; [5],0
same,B. signalgrass plant response rating,surinam grass; [6],3
same,B. signalgrass plant response rating,"surinam grass; Preemergence, Rate 500 g/ha, scale of 0 to 10 where 0 is no effect and 10 is complete control",5
same,B. signalgrass plant response rating,surinam grass; [8],0
same,"Plant response rating, Cocklebur",cocklebur; [1],0
same,"Plant response rating, Cocklebur",cocklebur; [2],0
same,Cocklebur plant response rating,cocklebur; [3],0
same,"Plant response rating, Cocklebur",cocklebur; [4],0
same,"Plant response rating, Cocklebur",cocklebur; [5],0
same,Cocklebur plant response rating,cocklebur; [9],0
same,Cocklebur plant response rating,cocklebur; [7],0
same,Cocklebur plant response rating,cocklebur; [8],0
same,"Plant response rating, Corn",corn; [1],0
same,"Plant response rating, Corn",corn; [2],0
same,Corn plant response rating,corn; [3],0
same,"Plant response rating, Corn",corn; [4],0
same,"Plant response rating, Corn",corn; [5],0
same,Corn plant response rating,corn; [9],0
same,Corn plant response rating,corn; [7],0
same,Corn plant response rating,corn; [8],0
same,"Plant response rating, Crabgrass",crabgrass; [1],0
same,"Plant response rating, Crabgrass",crabgrass; [2],2
same,Crabgrass plant response rating,crabgrass; [3],2
same,"Plant response rating, Crabgrass",crabgrass; [4],0
same,"Plant response rating, Crabgrass",crabgrass; [5],7
same,Crabgrass plant response rating,crabgrass; [9],10
same,Crabgrass plant response rating,crabgrass; [7],10
same,Crabgrass plant response rating,crabgrass; [8],0
same,"Plant response rating, Giant foxtail",giant foxtail; [1],0
same,"Plant response rating, Giant foxtail",giant foxtail; [2],2
same,Giant foxtail plant response rating,giant foxtail; [3],2
same,"Plant response rating, Giant foxtail",giant foxtail; [4],2
same,"Plant response rating, Giant foxtail",giant foxtail; [5],10
same,Giant foxtail plant response rating,giant foxtail; [9],10
same,Giant foxtail plant response rating,giant foxtail; [7],10
same,Giant foxtail plant response rating,giant foxtail; [8],0
same,"Plant response rating, Morningglory",morningglory; [2],8
same,Morningglory plant response rating,morningglory; [3],8
same,"Plant response rating, Morningglory",morningglory; [4],0
same,"Plant response rating, Morningglory",morningglory; [5],0
same,Morningglory plant response rating,morningglory; [9],0
same,Morningglory plant response rating,morningglory; [7],0
same,Morningglory plant response rating,morningglory; [8],0
same,"Plant response rating, Redroot pigweed",pigweed; [2],0
same,Redroot pigweed plant response rating,pigweed; [3],0
same,"Plant response rating, Redroot pigweed",pigweed; [4],0
same,"Plant response rating, Redroot pigweed",pigweed; [5],0
same,Redroot pigweed plant response rating,pigweed; [9],4
same,Redroot pigweed plant response rating,pigweed; [7],8
same,Redroot pigweed plant response rating,pigweed; [8],0
same,"Plant response rating, Soybean",soybean; [2],3
same,Soybean plant response rating,soybean; [3],6
same,"Plant response rating, Soybean",soybean; [4],0
same,"Plant response rating, Soybean",soybean; [5],0
same,Soybean plant response rating,soybean; [9],0
same,Soybean plant response rating,soybean; [7],0
same,Soybean plant response rating,soybean; [8],2
same,"Plant response rating, Sugarbeets",sugar beet; [2],0
same,Sugarbeets plant response rating,sugar beet; [3],3
same,"Plant response rating, Sugarbeets",sugar beet; [4],0
same,"Plant response rating, Sugarbeets",sugar beet; [5],0
same,Sugarbeets plant response rating,sugar beet; [9],0
same,Sugarbeets plant response rating,sugar beet; [7],2
same,Sugarbeets plant response rating,sugar beet; [8],0
same,Wild oats plant response rating,wild oat; [3],0
same,"Plant response rating, Wild oats",wild oat; [4],0
same,"Plant response rating, Wild oats",wild oat; [5],0
same,Wild oats plant response rating,wild oat; [9],2
same,Wild oats plant response rating,wild oat; [7],4
same,Wild oats plant response rating,wild oat; [8],0
same,"Plant response rating, Nutsedge",purple nutsedge; [2],0
same,Nutsedge plant response rating,purple nutsedge; [3],0
same,"Plant response rating, Nutsedge",purple nutsedge; [4],0
same,"Plant response rating, Nutsedge",purple nutsedge; [5],0
same,Nutsedge plant response rating,purple nutsedge; [9],0
same,Nutsedge plant response rating,purple nutsedge; [7],0
same,Nutsedge plant response rating,purple nutsedge; [8],0
same,Rice plant response rating,rice; [10],0
same,Rice plant response rating,rice; [11],0
same,"Plant response rating, Rice",rice; [12],0
same,S. Flatsedge plant response rating,smallflower flatsedge; [10],0
same,S. Flatsedge plant response rating,smallflower flatsedge; [11],0
same,"Plant response rating, S. Flatsedge",smallflower flatsedge; [12],0
same,"Plant response rating, Ducksalad","duck salad; Postemergence (flood test), Rate 125 g/ha",0
same,Ducksalad plant response rating,duck salad; [10],0
same,Ducksalad plant response rating,duck salad; [11],0
same,"Plant response rating, Ducksalad","duck salad; flood test species, listed under Postemergence, Rate 250 g/ha",0
